# “Also recorded” adds a separate entry of the source. [ ]: non-standard residue; d: D form. The star is where a group is joined. Cha = N[C@@H](CC1CCCCC1)C(=O)O; Orn = NCCC[C@H](N)C(=O)O; 2Furoyl = O=C(c1ccco1)*; Mpa = O=C(O)CCS
# Experiments:
# [1] = system: macrophages; experiment: Sensitivity of macrophages to IFNγ (iNOS expression, flow cytometry); type: cell-based; conditions: 100 microM; for enhanced sensitivity of macrophages to IFNγ induced by thrombin (iNOS): thrombin 50 iu
# Description: In more detail, mechanistic insights: direct effect on monocyte/macrophage phenotype. Sensitivity of macrophages to IFNγ, as assessed by the proportion that express iNOS after stimulation.
# The enhanced sensitivity to IFNγ induced by thrombin is inhibited by a PAR-1 antagonist—this is via expression of ABCA1 and membrane lipid rafts. […] BMM purified cells cultured in MCSF for 5 days. Cells then removed for 24 hours and incubated with thrombin (50 units) (if an antagonist or 3-mercaptopropionyl-F-Cha-Cha-RKPNDK was used cells were incubated for 2 hours with the antagonist or 3MP prior to thrombin stimulation to allow time for antagonist to dock with PAR). Cells then had media replaced with thrombin+ PAR reagent and IFN gamma at the dose described. For the PAR2 experiments it was at this point that PAR2 was added. Cells were then incubated for 24 further hours and then analysed by flow cytometry for iNOS. Pure PAR-1 antagonist (αagonist)=FLLRN; Pure PAR-2 agonist=2-Furoyl-LIGRLO-amide; 3-MP=3-mercaptopropionyl-F-Cha-Cha-RKPNDK; All used at 100 microM. Thrombin used at 50 iu
# [2] = system: SOCS3; experiment: SOCS3 expression of macrophages; type: cell-based
# Excerpt: This is a well-described inhibitor of IFNγ signalling. In the right graph, the thrombin-induced sensitivity to IFNγ, as assessed by change in iNOS expression, is shown.
# [3] = system: Mouse primary smooth muscle cells (SMCs) or endothelial cells (EC); experiment: In vitro secretion of chemokines by SMC/EC after PAR reagents; type: cell-based; set-up: secretion of MIF (and CCL-2) compared with PAR-1 agonists / secretion of CX3CL1 (and CCL5) compared with a PAR-1 agonist: dose or concentration left out as unconfirmed; conditions: for secretion of CX3CL1 (and CCL5) compared with a PAR-1 agonist / secretion of MIF (and CCL-2) compared with PAR-1 agonists: SMC, 12 hour stimulation, 48 hour culture
# Description: (§1) In more detail, Mechanistic insights—monocyte recruitment: In vitro secretion of chemokines by PAR-1 and PAR-2 agonists. Mouse primary smooth muscle cells (SMCs) or endothelial cells (EC) at a density of 1×10^6 cells/well of a 24-well plate were serum-starved for 24 hours before addition of FLLRN (PAR-1 […], 10 μM), 2-Furoyl-LIGRLO-Amide (PAR-2 agonist, 10 μM) or 3-MP (3-mercaptopropionyl-F-Cha-Cha-RKPNDK 10 μM) for 12 hours, following which thrombin (10 nM) was added for 1 hour, before a final 48 hours incubation in 2% FCS DMEM. Supernatants of stimulated cells were collected to measure MIF, CCL2, CCL5 and CX3CL1 using ELISA, following manufacturer's protocol.
# (§2) FIG. 22: Secretion of MIF and CX3CL1 by SMC after 12 hour stimulation with either a pure PAR-1 agonist, pure PAR-2 agonist, or by 3-mercaptoproprionyl(MP)—F-Cha-Cha-RKPNDK amide, followed by 48 hour culture period. All used at […]. Patterns of secretion of CCL-2 resemble those of MIF, whereas secretion of CCL5 resembles CX3CL1.
# [4] = system: C57BL/6 mice; experiment: Delayed type hypersensitivity, contact sensitivity to oxazolone (ear swelling); type: in vivo, mouse; conditions: WT mice, reagent at second exposure to oxazolone; for ear swelling: ear thickness 24 hours later
# Description: C57BL/6 mice were topically sensitised with oxazolone on the shaved abdomen on day 0. Treatment with either saline, PTL060 (10 mg/g), equimolar PTL0GC-1 or equimolar *3-MP was given on day 3 and day 5, the last immediately prior to re-challenge with oxazolone onto the right ear. The left ear was treated with vehicle alone. On day 6, the difference in swelling of the right and left ears was measured and is presented as D mean ear thickness.
# This example uses a model of contact hypersensitivity. Here, mice are challenged on the abdomen with the contact sensitizer oxazolone, before a re-challenge […] on both sides of the ear with oxazolone (on the right) or vehicle alone (on the left).
# Swelling of the ears, measured with a micrometer, reflects the influx of monocytes/macrophages and T cells in a typical delayed-type hypersensitivity (DTH) response.
# FIG. 19: Model of DTH involving contact sensitivity to oxazolone. WT mice were administered a PAR-1 agonist or antagonist at the point of second exposure to oxazolone, before ear thickness was assessed 24 hours later, and mice sacrificed for immunohistological analysis of cross sections of the affected ears, to determine the proportional area occupied by CD68+ cells (macrophages). *p<0.05. **p<0.01. ***p<0.001
# [5] = system: murine SMC; experiment: Thrombin-induced secretion of chemokines by SMC with PAR reagents; type: cell-based, mouse; set-up: thrombin-mediated MIF (and CCL-2) secretion / thrombin-mediated CX3CL1 secretion: dose or concentration left out as unconfirmed; conditions: for thrombin-mediated CX3CL1 secretion / thrombin-mediated MIF (and CCL-2) secretion: SMC, 12 hour; for thrombin-induced secretion of CX3CL1 and CCL5 reduced by: murine SMC, 10 μM, thrombin 10 nM
# Description: as §1, with “[…] ,” for “following which thrombin (10 nM) was added for 1 hour,”
# In more detail, mechanistic insights—monocyte recruitment: In vitro secretion of chemokines by thrombin—differential impact of PAR-1 antagonist and 3-mercaptopropionyl-F-Cha-Cha-RKPNDK. Secretion of chemokines from murine SMC after stimulation with thrombin alone (nil), or in presence of a pure PAR-1 antagonist, or 3-MP*.
# as §2
# Chemokines measured 48 hours later. Secretion of CCL-2 resembles that of MIF, whereas secretion of CCL5 resembles CX3CL1.
# [6] = biological target: T1, PAR2 (Homo sapiens, UniProt P55085); conditions: Kawabata et al 1999, page 365; cited from earlier work
# T1 sequence (P55085 26-397): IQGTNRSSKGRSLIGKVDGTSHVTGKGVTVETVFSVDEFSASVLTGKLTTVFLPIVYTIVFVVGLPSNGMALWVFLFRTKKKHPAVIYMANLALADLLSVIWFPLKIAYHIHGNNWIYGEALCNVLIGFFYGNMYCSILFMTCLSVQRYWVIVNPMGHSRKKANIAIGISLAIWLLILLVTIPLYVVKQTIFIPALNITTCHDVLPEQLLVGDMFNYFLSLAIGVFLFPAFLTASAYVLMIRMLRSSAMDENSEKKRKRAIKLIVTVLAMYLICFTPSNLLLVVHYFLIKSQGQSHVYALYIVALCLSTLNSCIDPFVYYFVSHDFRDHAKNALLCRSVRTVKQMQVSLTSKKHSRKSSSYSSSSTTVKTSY
# [7] = system: C57BL/6 mice; experiment: Delayed type hypersensitivity, contact sensitivity to oxazolone (ear swelling); type: in vivo, mouse; conditions: 10 microM/g
# [8] = biological target: T2, PAR1 (Homo sapiens, UniProt P25116); conditions: Kawabata et al 1999, page 365; cited from earlier work
# T2 sequence (P25116 22-425): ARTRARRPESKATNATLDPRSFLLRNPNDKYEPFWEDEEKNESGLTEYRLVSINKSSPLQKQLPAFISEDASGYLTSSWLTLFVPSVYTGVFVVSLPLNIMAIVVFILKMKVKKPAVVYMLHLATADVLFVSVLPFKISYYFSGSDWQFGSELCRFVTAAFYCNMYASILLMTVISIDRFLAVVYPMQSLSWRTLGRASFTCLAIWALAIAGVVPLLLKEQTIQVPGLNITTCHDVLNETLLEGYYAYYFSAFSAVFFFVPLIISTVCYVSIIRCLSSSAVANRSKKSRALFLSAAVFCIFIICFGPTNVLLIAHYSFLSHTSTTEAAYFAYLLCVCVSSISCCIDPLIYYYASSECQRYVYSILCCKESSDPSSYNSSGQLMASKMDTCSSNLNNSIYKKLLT
# [9] = system: ABCA1; experiment: ABCA1 expression of macrophages incubated with thrombin; type: cell-based; conditions: titrated in during incubation of macrophages with thrombin
# Excerpt: In more detail, mechanistic insights: direct effect on monocyte/macrophage phenotype through SOCS3. To explain how 3-MP inhibits the enhanced sensitivity to IFNγ induced by thrombin.
# [10] = system: ApoE−/− mice; conditions: 30-week-old animals; cited from earlier work
# [11] = biological target: T3, protease activated receptor 1 (PAR-1) (UniProt P30558)
# T3 sequence: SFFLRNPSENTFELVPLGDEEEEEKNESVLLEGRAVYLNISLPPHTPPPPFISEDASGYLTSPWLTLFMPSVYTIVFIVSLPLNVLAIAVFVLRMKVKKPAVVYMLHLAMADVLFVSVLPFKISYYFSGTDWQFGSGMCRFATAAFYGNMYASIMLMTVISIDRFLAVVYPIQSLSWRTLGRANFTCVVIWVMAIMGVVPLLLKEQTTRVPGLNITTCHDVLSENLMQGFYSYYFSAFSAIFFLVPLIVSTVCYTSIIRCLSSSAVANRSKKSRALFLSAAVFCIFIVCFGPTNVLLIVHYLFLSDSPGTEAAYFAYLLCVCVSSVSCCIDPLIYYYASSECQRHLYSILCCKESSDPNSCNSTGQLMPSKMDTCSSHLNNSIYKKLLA
Molecule,enhanced sensitivity of macrophages to IFNγ induced by thrombin (iNOS) [1],SOCS3 expression [2],secretion of CX3CL1 (and CCL5) compared with a PAR-1 agonist [3],secretion of MIF (and CCL-2) compared with PAR-1 agonists [3],ear swelling [4],thrombin-mediated CX3CL1 secretion [5],thrombin-mediated MIF (and CCL-2) secretion [5],thrombin-induced secretion of CX3CL1 and CCL5 reduced by [5],also measured
2-Furoyl-LIGRLO-amide (2Furoyl-LIGRL[Orn]-NH2) [PAR-2 agonist],reduces the sensitivity of macrophages to IFNγ induced by thrombin; also recorded: dampens the enhanced sensitivity,induces SOCS3 expression,stimulated better,less so,inhibits,,,,
"3-mercaptopropionyl-Phe-Cha-Cha-Arg-Lys-Pro-Asn-Asp-Lys-NH2 ([Mpa]F[Cha][Cha]RKPNDK-NH2; SMILES N=C(N)NCCC[C@H](NC(=O)[C@H](CC1CCCCC1)NC(=O)[C@H](CC1CCCCC1)NC(=O)[C@H](Cc1ccccc1)NC(=O)CCS)C(=O)N[C@@H](CCCCN)C(=O)N1CCC[C@H]1C(=O)N[C@@H](CC(N)=O)C(=O)N[C@@H](CC(=O)O)C(=O)N[C@@H](CCCCN)C(N)=O) [3-MP, parental untailed compound of PTL032 and PTL0GC-1]",more potent than a pure PAR-1 antagonist,induces SOCS3 expression,stimulated better,less so,inhibits ear swelling and infiltration by CD68+ cells better than when either a pure PAR-1 antagonist or PAR-2 agonist are administered separately,maintained,inhibited equally,0-10%,"activity at PAR2 [6]: agonist; background response of control macrophages to IFNγ [1]: inhibits the background response of control macrophages to IFNγ; monocyte recruitment and phenotype in DTH [7]: reduced monocyte recruitment with switched phenotype; activity at PAR1 [8]: antagonist; behaviour in chemokine secretion assay ([3]; 10 μM, 12 hours, MIF, CCL2, CCL5, CX3CL1 by ELISA): behaves as a pure PAR-2 agonist; infiltration by CD68+ cells compared with both reagents together [4]: inhibits CD68 infiltration better than when both reagents are administered together; thrombin-induced ABCA1 expression [9]: inhibits thrombin-induced ABCA1 expression"
N=C(N)c1ccc(CNC(=O)[C@@H]2CCN2C(=O)[C@H](NCC(=O)O)C2CCCCC2)cc1 [Megalatran],,,,,,,,,burden of advanced atheromatous lesions [10]: reduced burden of advanced atheromatous lesions
FLLRN [PAR-1 antagonist],inhibited,,,,inhibited,inhibited,inhibited equally,50%,
FSLLRY-NH2 trifluoroacetate salt [PAR-2 antagonist],,,,,exacerbates,,,,
thrombin,,,,,,,,,MIF and CCL2 production by cultured mouse SMCs after stimulation by thrombin (ELISA) [11]: thrombin-mediated chemokine expression was primarily via PAR-1
